According to patent publication US6399623B1, “Wood treatment” (Agrevo UK Ltd., priority 1998, dated 2002):

Key:
[1] = test system: wood rotting fungi (mainly basidiomycetes); test: In vivo test of activity against wood destroying fungi (dipped pine pieces); conditions: 100 ppm fluquinconazole, formulation containing di(2-ethylhexyl)octyl phosphonate, 5 weeks in sealed bag, compared with standards without pesticide
Procedure: Pieces of pine were dipped into a fluquinconazole formulation containing di(2-ethylhexyl)octyl phosphonate at different rates and then removed and put, whilst soaking wet, into a polythene bag which was sealed and left in a greenhouse for 5 weeks. The degree of control of wood rotting fungi (mainly basidiomycetes) was then assessed.

Poria placenta = test: In vitro malt agar test, colony diameter; type: cell-based; conditions: assessed after 6 days
Procedure: (§1) A 50% SC of fluquinconazole (fq) was incorporated into malt agar at various rates and the agar placed into Petri dishes. Into the centre of each plate was implanted a 4 mm plug of the mycelium of a wood rotting fungus. The plates were kept at 20° C. in a darkened room for 6 days when the control of the fungus by the fluquinconazole was assessed. The experiment was also carried out with a fluquinconazole formulation containing di(2-ethylhexyl)octyl phosphonate (ph) with and without prochloraz (pz).

Coriolus versicolor = test: In vitro malt agar test, colony diameter; type: cell-based; conditions: assessed after 6 days
Procedure: as §1

Coniophora puteana = test: In vitro malt agar test, colony diameter; type: cell-based; conditions: assessed after 6 days
Procedure: as §1

Gloephyllum trabeum = test: In vitro malt agar test, colony diameter; type: cell-based; conditions: assessed after 11 days
Procedure: as §1, with “The plates were kept at 20° C. in a darkened room for 6 days when the control of the fungus by the fluquinconazole was assessed.” left out

sapstain fungi = test: In vivo test of activity against sapstain fungi (dipped pine bundles); conditions: 50% suspension concentrate diluted to 0.25%, 60 s dip, after 4 weeks; compared with wood dipped only in water
Text: Bundles consisting of 7 pieces of freshly cut pine (approximate sizes of 20 cm×30 cm) were dipped in a 50% suspension concentrate of fluquinconazole, diluted to 0.25%, for 60 seconds, ensuring each piece of wood was separated from its contacting pieces. The wood was removed from the liquid and allowed to drain for 10 seconds and then placed in an unsealed polythene bag at room temperature. The bag was used in order to maintain a high relative humidity, which promotes growth of sapstain. The wood was removed for examination after 4 weeks and divided into two in order to expose the centre of the bundles. These were assessed for sapstain infection.

## O=c1c2cc(F)ccc2nc(-n2cncn2)n1-c1ccc(Cl)cc1Cl [fluquinconazole, 3-(2,4-dichlorophenyl)-6-fluoro-2-(1H-1,2,4-triazol-1-yl)-4(3H)-quinazolinone]
[1]
  control of wood rotting fungi: 73.1%
Poria placenta; 1 ppm
  % Control based on colony diameter: 99.4%
Poria placenta; 5 ppm
  % Control based on colony diameter: 100.0%
Poria placenta; 10 ppm
  % Control based on colony diameter: 100.0%
Poria placenta; 25 ppm
  % Control based on colony diameter: 100.0%
Poria placenta; 100 ppm
  % Control based on colony diameter: 100.0%
Coriolus versicolor; 1 ppm
  % Control based on colony diameter: 100.0%
Coriolus versicolor; 5 ppm
  % Control based on colony diameter: 100.0%
Coriolus versicolor; 10 ppm
  % Control based on colony diameter: 100.0%
Coriolus versicolor; 25 ppm
  % Control based on colony diameter: 100.0%
Coriolus versicolor; 100 ppm
  % Control based on colony diameter: 100.0%
Coniophora puteana; 1 ppm
  % Control based on colony diameter: 50.4%
Coniophora puteana; 5 ppm
  % Control based on colony diameter: 75.6%
Coniophora puteana; 10 ppm
  % Control based on colony diameter: 84.7%
Coniophora puteana; 25 ppm
  % Control based on colony diameter: 68.7%
Coniophora puteana; 100 ppm
  % Control based on colony diameter: 77.9%
Gloephyllum trabeum; 1 ppm
  % Control based on colony diameter: 80.5%
Gloephyllum trabeum; 5 ppm
  % Control based on colony diameter: 94.0%
Gloephyllum trabeum; 10 ppm
  % Control based on colony diameter: 95.0%
Gloephyllum trabeum; 25 ppm
  % Control based on colony diameter: 92.5%
Gloephyllum trabeum; 100 ppm
  % Control based on colony diameter: 94.0%
Sapstain fungi
  control of the sapstain: > 60%
